In patent US6436942B1, “Enantiomers of 1[(4-chloro-phenyl) phenylmethyl]-4-[(4-methylphenyl) sulfony]piperazine” (UCB, S.A., priority 1993, dated 2002):
Where a name gives a salt, the structure may show the parent alone. Read-outs that look alike come from different tables or passages of the source.

What was measured:
[1] = tested on: isolated guinea pig trachea; assay: Peripheral antihistaminic properties: inhibition of histamine-induced contraction of isolated guinea pig trachea; details: mean ± standard deviation, histamine-contracted guinea pig trachea; for pA2: competitive inhibition; for pD2′: non-competitive inhibition
Protocol: Tracheas of Dunkin-Hartley guinea pigs of both sexes (weight: 250-500 g) are excised and cut into four fragments of three segments of cartilage each. These fragments are immersed in a Krebs-Heinseleit solution at 37° C. containing 10^−7 mole/l of atropine and 10^−5 mole/l of indomethacin and are stretched with a weight of 1 g. The solution is aerated with a current of oxygen containing 5% carbon dioxide. Each change in tension, is recorded with an isometric force indicator K 30 (from Hugo Sachs Elektronik) coupled to an amplifier and a Sanborn 7700 recorder (from Hewlett Packard). The preparation (i.e. trachea fragment) so obtained is allowed to stabilize for one hour during which the base line for the tension is readjusted if necessary.
After washing and stabilization, a cumulative curve showing the effects of histamine, as a function of its concentration (10^−6, 10^−5 and 10^−4 mole/l) is plotted as a control.
For the same preparation, four further cumulative curves showing the effects of histamine as a function of its concentration are then recorded at four increasing concentrations of each compound to be tested.
The compounds to be tested are incorporated in the medium five minutes before the histamine. Between each measurement, the preparations are washed at least four times with an interval of five minutes between each washing. Each compound is tested on at least 6 trachea fragments. When the last curve is plotted, additional concentrations of 3.2×10^−4 and 10^−3 mole/l of histamine are added in order to determine whether the antagonism is competitive or not.

[2] = target: T1, rat cortex histamine H1 receptor (Rattus norvegicus, UniProt P31390); assay: Affinity towards the histamine H1 receptor ([3H]mepyramine competitive binding); details: cologarithm of Ki, mean ± deviation (n=2); [3H]mepyramine 4.5×10^−9 mole/l, rat cortex membranes
T1 construct: the samples containing 0.5 mg of cortex membrane protein; from tissue; host or cells: cerebral cortex membranes of male Sprague-Dawley rats
Protocol: Cerebral cortexes from male Sprague-Dawley rats are homogenized in 2 ml per cortex of a 20 mM Tris-HCl buffer (pH 7.4) containing 250 mM sucrose. The homogenates are centrifuged at 30,000 g for 30 minutes at 4° C. and the centrifugation pellets are resuspended in the same fresh buffer and preserved in liquid nitrogen. […] The bound [^3H]mepyramine is separated from the free radioligand by rapid filtration of the sample through a Whatman GF/C filter, previously impregnated for at least 2 hours with a 0.1% solution of polyethyleneimine, in order to reduce the possibility of non-specific binding of the radioligand with other proteins. […] The radioactivity thereof is then measured using a β particle Tri-carb 1090 scintillation counter (Camberra-Packard, Belgium). Non-specific binding has been estimated in the presence of a 10 μM aqueous solution of cetirizine and represents 30% of the total binding. […] DE LEAN et al., Mol. Pharmacol., 21 (1982), 5-16) and their inhibition constants (Ki) are calculated by means of the CHENG and PRUSOFF equation (Y. C. CHENG and W. H. PRUSOFF, Biochem. Pharmacol., 22 (1973), 3099-3108). Table III below gives the values of pKi (cologarithm of Ki) calculated from Ki (mean value±deviation with respect to the mean (n=2)), for the compounds tested.

[3] = tested on: cutaneous reaction induced by histamine; assay: Inhibition of the cutaneous reaction induced by histamine in dogs; assay type: in vivo, dog; details: for Area of wheals: nine Beagle dogs, mean ± SD; for Wheal area as percent of reference: with respect to reference area (100%); for inhibition at 0.15 mg/kg: Canis lupus familiaris
Protocol: The dog is considered, among the animal species, to be the species having a sensitivity to histamine relatively close to that of man.
In this test, nine Beagle dogs are used, having an average weight of 12.6 kg and of about two years of age and of which the abdomens have been locally shaved. 50 μl of a 0.9% aqueous solution of sodium chloride, containing 10 μg/ml of histamine, is injected intradermally into the shaved area. Simultaneously, a solution of Evans blue dye (60 mg/ml in a 0.9% aqueous solution of sodium chloride), is administered by intravenous injection to each dog at a dose of 0.1 ml/kg. An allergic reaction develops at the intradermal injection site and there appears a wheal, the area of which is measured exactly 30 minutes after the two injections. This area is taken as the reference. area (100%)
The compound to be tested is then administered orally, at a dose of 0.15 mg/kg (0.32×10^−6 mole/kg). 0.5, 1.5, 3, 6, 9, 12, 24 and 32 hours after administration of the compound to be tested, new wheals are induced at different abdominal locations by injecting histamine. Each time, the area of the induced wheal is measured 30 minutes after the injection of histamine.
The antihistaminic activity of a compound on the cutaneous allergic reaction is determined by measuring the reduction in the area of the induced wheals, following administration of the compound, with respect to the area of the reference wheal, and then expressed in percent.

[4] = tested on: mice; assay: Toxicity: lethal dose in mice after intraperitoneal injection; assay type: in vivo; details: dose causing death in 2 out of 3 mice
[5] = 0.5 hours after 0.15 mg/kg oral
[6] = 1.5 hours after 0.15 mg/kg oral

T1 sequence (P31390 whole entry): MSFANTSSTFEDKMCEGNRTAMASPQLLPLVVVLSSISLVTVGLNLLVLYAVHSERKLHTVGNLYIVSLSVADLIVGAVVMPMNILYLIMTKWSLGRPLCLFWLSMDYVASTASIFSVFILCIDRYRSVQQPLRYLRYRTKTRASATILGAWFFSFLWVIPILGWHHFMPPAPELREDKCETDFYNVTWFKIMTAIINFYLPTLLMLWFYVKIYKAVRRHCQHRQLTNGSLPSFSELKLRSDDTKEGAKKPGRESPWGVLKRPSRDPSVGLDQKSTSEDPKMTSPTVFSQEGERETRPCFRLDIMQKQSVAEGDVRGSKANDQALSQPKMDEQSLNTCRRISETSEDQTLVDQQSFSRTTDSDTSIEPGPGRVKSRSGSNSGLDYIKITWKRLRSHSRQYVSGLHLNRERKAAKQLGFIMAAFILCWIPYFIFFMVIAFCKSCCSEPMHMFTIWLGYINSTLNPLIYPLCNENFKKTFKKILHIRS

Row | Structure (SMILES) | pA2 [1] | Ki [2] [nM] | Lethal dose [4] [mol/kg] | other results
1 | Clc1ccc(C(c2ccccc2)N2CCNCC2)cc1 (single isomer, unassigned; (+)) [B, (+)-1-[(4-chlorophenyl)phenylmethyl]piperazine] | 5.0 ± 0.1 |  |  | 
2 | O=C(O)COCCN1CCN(C(c2ccccc2)c2ccc(Cl)cc2)CC1 (single isomer, unassigned) [P, dextrorotatory dihydrochloride of 2-[2-[4-[(4-chlorophenyl)phenylmethyl]-1-piperazinyl]ethoxy]acetic acid] |  | 6.31 |  | pD2′ [1]: 6.3 ± 0.2; Area of wheals [3, 5]: 65 ± 10 mm^2; Wheal area as percent of reference [3, 5]: 85%; reduction in the area of the wheals ([3]; 30 minutes after administration, 0.15 mg/kg oral, dogs): 15%; Area of wheals [3, 6]: 44 ± 12 mm^2; Wheal area as percent of reference [3, 6]: 58%; Area of wheals ([3]; 3 hours after 0.15 mg/kg oral): 33 ± 10 mm^2; Wheal area as percent of reference ([3]; 3 hours after 0.15 mg/kg oral): 43%; Area of wheals ([3]; 6 hours after 0.15 mg/kg oral): 41 ± 13 mm^2; Wheal area as percent of reference ([3]; 6 hours after 0.15 mg/kg oral): 54%; Area of wheals ([3]; 9 hours after 0.15 mg/kg oral): 41 ± 10 mm^2; Wheal area as percent of reference ([3]; 9 hours after 0.15 mg/kg oral): 54%; Area of wheals ([3]; 12 hours after 0.15 mg/kg oral): 41 ± 10 mm^2; Wheal area as percent of reference ([3]; 12 hours after 0.15 mg/kg oral): 54%; Area of wheals ([3]; 24 hours after 0.15 mg/kg oral): 45 ± 5 mm^2; Wheal area as percent of reference ([3]; 24 hours after 0.15 mg/kg oral): 59%; Area of wheals ([3]; 32 hours after 0.15 mg/kg oral): 51 ± 5 mm^2; Wheal area as percent of reference ([3]; 32 hours after 0.15 mg/kg oral): 67%; inhibition at 0.15 mg/kg ([3]; 3 h, after three hours, 0.15 mg/kg oral, dogs, read-out: Maximum inhibition (of wheal area)): 57%; inhibition at 0.15 mg/kg ([3]; after 32 hours, 0.15 mg/kg oral, dogs, read-out: inhibition (of wheal area), statistically significant): 33%
3 | CC(C)(C)c1ccc(CN2CCN(C(c3ccccc3)c3ccc(Cl)cc3)CC2)cc1 (single isomer, unassigned) [F, dextrorotatory dihydrochloride of 1-[(4-tert-butylphenyl)methyl]-4-[(4-chlorophenyl)phenylmethyl]piperazine] |  | 631 | >0.001 | 
4 | Clc1ccc(C(c2ccccc2)N2CCNCC2)cc1 (single isomer, unassigned; (-)) [A, (−)-1-[(4-chlorophenyl)phenylmethyl]piperazine] | 5.7 ± 0.4 |  |  | 
5 | Cc1cccc(CN2CCN(C(c3ccccc3)c3ccc(Cl)cc3)CC2)c1 (single isomer, unassigned) [D, dextrorotatory dihydrochloride of 1-[(4-chlorophenyl)phenylmethyl]-4-[(3-methylphenyl)methyl]piperazine] |  | 63.1 | >0.001 | 
6 | OCCOCCOCCN1CCN(C(c2ccccc2)c2ccc(Cl)cc2)CC1 (single isomer, unassigned) [I, levorotatory dihydrochloride of 2-[2-[2-[4-[(4-chlorophenyl)phenylmethyl]-1-piperazinyl]ethoxy]ethoxy]ethanol] | 6.5 ± 0.4 | 79.4 | 0.0001 | 
7 | OCCOCCN1CCN(C(c2ccccc2)c2ccc(Cl)cc2)CC1 (single isomer, unassigned) [H, dextrorotatory dihydrochloride of 2-[2-[4-[(4-chlorophenyl)phenylmethyl]-1-piperazinyl]ethoxy]ethanol] |  | 2 | 0.0006 | pD2′ [1]: 6.7 ± 0.1
8 | COC(=O)COCCN1CCN(C(c2ccccc2)c2ccc(Cl)cc2)CC1 (single isomer, unassigned) [M, levorotatory dimaleate of methyl 2-[2-[4-[(4-chlorophenyl)phenylmethyl]-1-piperazinyl]ethoxy]acetate] |  | 3.16 |  | 
9 | Cc1cccc(CN2CCN(C(c3ccccc3)c3ccc(Cl)cc3)CC2)c1 (single isomer, unassigned) [C, levorotatory dihydrochloride of 1-[(4-chlorophenyl)phenylmethyl]-4-[(3-methylphenyl)methyl]piperazine] |  | 631 | >0.001 | 
10 | COC(=O)COCCN1CCN(C(c2ccccc2)c2ccc(Cl)cc2)CC1 (single isomer, unassigned) [N, dextrorotatory dimaleate of methyl 2-[2-[4-[(4-chlorophenyl)phenylmethyl]-1-piperazinyl]ethoxy]acetate] |  | 79.4 |  | 
11 | OCCOCCOCCN1CCN(C(c2ccccc2)c2ccc(Cl)cc2)CC1 (single isomer, unassigned) [J, dextrorotatory dihydrochloride of 2-[2-[2-[4-[(4-chlorophenyl)phenylmethyl]-1-piperazinyl]ethoxy]ethoxy]ethanol] |  | 2.51 | 0.0001 | pD2′ [1]: 6.0 ± 0.3
12 | CC(C)(C)c1ccc(CN2CCN(C(c3ccccc3)c3ccc(Cl)cc3)CC2)cc1 (single isomer, unassigned) [E, levorotatory dihydrochloride of 1-[(4-tert-butylphenyl)methyl]-4-[(4-chlorophenyl)phenylmethyl]piperazine] |  | 1260 | 0.001 | 
13 | NC(=O)COCCN1CCN(C(c2ccccc2)c2ccc(Cl)cc2)CC1 (single isomer, unassigned; (+)) [Compound L, (+)-2-[2-[4-[(4-chlorophenyl)phenylmethyl]-1-piperazinyl]ethoxy]acetamide] | 6.4 ± 0.2 | 158 | 0.001 | 
14 | OCCOCCN1CCN(C(c2ccccc2)c2ccc(Cl)cc2)CC1 (single isomer, unassigned) [G, levorotatory dihydrochloride of 2-[2-[4-[(4-chlorophenyl)phenylmethyl]-1-piperazinyl]ethoxy]ethanol] | 6.5 ± 0.3 | 25.1 | 0.0006 | 
15 | O=C(O)COCCN1CCN(C(c2ccccc2)c2ccc(Cl)cc2)CC1 (single isomer, unassigned) [O, levorotatory dihydrochloride of 2-[2-[4-[(4-chlorophenyl)phenylmethyl]-1-piperazinyl]ethoxy]acetic acid] | 6.6 ± 0.3 | 39.8 |  | 
16 | NC(=O)COCCN1CCN(C(c2ccccc2)c2ccc(Cl)cc2)CC1 (single isomer, unassigned; (-)) [K, (−)-2-[2-[4-[(4-chlorophenyl)phenylmethyl]-1-piperazinyl]ethoxy]acetamide] |  | 2.51 | 0.0003 | pD2′ [1]: 6.3 ± 0.2
